Tests used:
[1] = carboxylic acid functionality; no measurement described; cited from earlier work
[2] = test system: patient-derived BMIC lines from lung-, breast-, and melanoma-BM; assay: Dose-response curves of multiple BM lines; format: cell-based, human; conditions: 72-h treatment; below plasma Cmax concentration of 10 μM
Description: PrestoBlue readout is normalized to vehicle-treated cells. Data are presented as mean ± SD from 4 technical replicates. (C) Assessment of cell viability of patient-derived BMICs treated with MPA or its vehicle. PrestoBlue readout is normalized to vehicle-treated cells, p < 0.0001. […] Sphere count normalized to vehicle-treated cells, p < 0.0001. (F and G) Percent wound closure of DMSO control vs. MPA-treated cells expressed as an average of replicates (n = 3) and images are taken at 10× magnification. Wound closure (represented by dotted white line) is measured using ImageJ on Incucyte-derived images, p values are indicated. Scale bars are 400 μm. See also Videos S1, S2, S3, and S4. Comparisons of cell viability, sphere formation, and wound closure were made via a two-tailed unpaired t test and data are presented as mean ± SD from 3 to 4 technical replicates. […]
Dose-response assays were conducted using the same protocol apart from drugs being plated using 2-fold serial dilutions (20 μM - 39 nM) as previously described.[66] The half maximal inhibitory concentration (IC50) is determined by plotting percent cell viability by the logarithmic concentration of drug. IC80 concentrations will be used for subsequent functional assays (cell proliferation, sphere formation), as determined by the following formula: ICF=100−F/F^1/H×IC50 where F = fraction of maximal response and H = hill slope.

[3] = test system: patient-derived lung-BMICs; assay: Intracardiac injection of lung-BMICs, daily oral gavage treatment; format: in vivo, mice; conditions: 100 mg/kg daily oral gavage, vs placebo
Description: We next wondered whether a drug used to slow down, or block, BM needed to be BBB penetrant and aimed to uncover whether MPA could target pre-metastatic BMICs in the circulation in a more clinically relevant in vivo treatment model.
(§1) All experimental procedures involving animal work has been reviewed and approved by McMaster University Animal Research Ethics Board. Non-obese diabetic-severe combined immunodeficient IL2r γ ^null (NSG) mice are used for all experiments. Equal numbers of male and female mice were used for all experiments. Healthy mice were 6–8 weeks at time of use. Mice are anesthetized by gas anesthesia using isoflurane (4% induction, 2.5% maintenance) before procedure. Cells were engineered to express firefly luciferase and were injected intracardially, orthotopically, or intracranially as previously described.[13]^,[14]^,[63]^,[64]^,[65] […] Mice are monitored weekly for signs of illness until endpoint.
(§2) Fig S3. MPA m ust cross the blood brain barrier to eff ectively slow the progression of BM over tim e, related to Figures 3 and 4. a, Mice were either orthotopically (intratho racically) or intracardiac injected with lung BMICs, […]
to placebo, but (f) had the same number of human cells detected in their brains following humane endpoint by flow cytometry. n.s. = not significant. […]

[4] = test system: primary lung CRUK0748 cell line; assay: Orthotopic injection of CRUK0748, daily oral gavage treatment; format: in vivo, mice; conditions: 100 mg/kg daily oral gavage, vs placebo
Description: Next, we injected mice orthotopically with the primary lung CRUK0748 cell line and treated them daily as described earlier (see Figure S3A).
as §1, §2
seven days post-injection by IVIS, (c), no significant reduction in tumor burden following t reatment completion […]
to placebo, but (f) had the same number of human cells detected in their brains following humane endpoint by flow cytometry. n.s. = not significant.
(1 picture or pasted object on this page, not shown here)

[5] = test system: primary CRUK0748 lung tumor cells; assay: Pre-treatment model, intrathoracic engraftment of primary lung tumor cells; format: in vivo, mice; conditions: cells pre-treated in vitro
Protocol: Mice injected with MPA-treated cells also experienced a significant increase in median survival time of 6 days compared to the mice injected with vehicle-treated cells (Figure 3H).
BMICs were dissociated into single cell suspensions and resuspended in phosphate buffered saline (PBS, Wisent Bio) with 2 mM EDTA. Cells were stained with APC-conjugated anti-human TRA-1-85 (CD147; Cat # 130-128-900, Miltenyi Biotec) and incubated for 15 min at room temperature. The viability dye 7-Aminoactinomycin D (7-AAD; Cat # 00-6993-50, eBioscience) was used to exclude dead cells; incubation with 7-AAD allows for penetration of compromised membranes and binding to DNA.[74] Live cells were analyzed using Summit 5.4 software on MoFlo XDP cell sorter (Beckman Coulter) to confirm human BMIC metastasis to the brain.

[6] = read-out: clinically relevant plasma Cmax concentration; cited from earlier work

COc1c(C)c2c(c(O)c1C/C=C(\C)CCC(=O)O)C(=O)OC2 [MPA, Mycophenolic acid]
pKa [1]: ~5
anti-BMIC activity against multiple BMIC lines [2]: relatively high anti-BMIC activity
brain tumor burden ([3]; 7 days post-injection): significantly reduced brain tumor burden
difference in brain tumor burden ([3]; 14 days post-injection): no longer observed
number of human cells detected in mouse brains ([4]; humane endpoint, flow cytometry): no significant difference
survival [4]: survived significantly longer
TRA-1-85-positive human cells detected in brains ([5]; humane endpoint, flow cytometry, vs vehicle): significantly fewer
increase in median survival time ([5]; intrathoracic injection, vs vehicle-treated cells): 6 days
Cmax [6]: 10 µM

Reference: paper PMC11513854, “De novo GTP synthesis is a metabolic vulnerability for the interception of brain metastases” (Cell Reports Medicine, 2024)
